ChEMBL document CHEMBL5465560, “Selectivity Literature for EUbOPEN Chemogenomic Library” (2024)

Assays:
[1] = target: Wee1-like protein kinase 2 (Homo sapiens) (UniProt P0C1S8); experiment: Selectivity interaction (KinomeScan (DiscoverX)) EUB0001049a WEE2; conditions: at 1 µM
[2] = target: Cyclin-dependent kinase 16 (Homo sapiens) (UniProt Q00536); experiment: Selectivity interaction (KinomeScan (DiscoverX)) EUB0001049a CDK16; conditions: at 1 µM
[3] = target: T1, Myosin light chain kinase family member 4 (Homo sapiens) (UniProt Q86YV6); experiment: Selectivity interaction (KinomeScan (DiscoverX)) EUB0001079a MYLK4; conditions: at 1 µM
T1 sequence (whole entry): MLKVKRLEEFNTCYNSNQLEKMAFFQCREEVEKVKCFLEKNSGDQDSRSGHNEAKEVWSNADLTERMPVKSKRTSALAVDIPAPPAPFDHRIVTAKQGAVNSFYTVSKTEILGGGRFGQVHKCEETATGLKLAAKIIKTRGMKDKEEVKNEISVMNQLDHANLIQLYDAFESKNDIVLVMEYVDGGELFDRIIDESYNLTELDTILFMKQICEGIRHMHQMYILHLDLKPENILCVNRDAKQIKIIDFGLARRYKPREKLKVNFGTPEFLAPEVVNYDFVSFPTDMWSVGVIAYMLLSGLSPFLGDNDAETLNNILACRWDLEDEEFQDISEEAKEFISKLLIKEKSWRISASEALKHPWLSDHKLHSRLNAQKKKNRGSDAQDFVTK

[4] = target: STE20-like serine/threonine-protein kinase (Homo sapiens, UniProt Q9H2G2); experiment: Selectivity interaction (Kinase panel (DSF assay)) EUB0001558a SLK
[5] = target: T2, Serine/threonine-protein kinase 17A (Homo sapiens) (UniProt Q9UEE5); conditions: at 10 µM
T2 sequence (whole entry): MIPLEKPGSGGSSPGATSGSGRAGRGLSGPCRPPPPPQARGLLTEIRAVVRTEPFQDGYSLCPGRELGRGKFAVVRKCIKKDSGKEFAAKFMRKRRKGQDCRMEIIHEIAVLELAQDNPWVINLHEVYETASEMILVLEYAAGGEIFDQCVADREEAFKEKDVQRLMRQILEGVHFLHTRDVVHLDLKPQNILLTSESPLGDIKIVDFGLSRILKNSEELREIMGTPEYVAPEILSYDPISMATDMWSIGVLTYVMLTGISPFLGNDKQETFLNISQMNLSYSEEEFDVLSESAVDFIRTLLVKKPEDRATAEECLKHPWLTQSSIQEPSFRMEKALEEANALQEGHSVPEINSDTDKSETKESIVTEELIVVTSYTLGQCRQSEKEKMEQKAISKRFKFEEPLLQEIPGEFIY

[6] = target: Serine/threonine-protein kinase PRP4 homolog (Homo sapiens) (UniProt Q13523); experiment: Selectivity interaction (KinomeScan (DiscoverX)) EUB0000618a PRPF4; conditions: at 10 µM
[7] = target: T3, Serine/threonine-protein kinase Chk1 (Homo sapiens) (UniProt O14757); experiment: Selectivity interaction (KinomeScan (DiscoverX)) EUB0001619a CHEK1; conditions: at 1 µM
T3 sequence (whole entry): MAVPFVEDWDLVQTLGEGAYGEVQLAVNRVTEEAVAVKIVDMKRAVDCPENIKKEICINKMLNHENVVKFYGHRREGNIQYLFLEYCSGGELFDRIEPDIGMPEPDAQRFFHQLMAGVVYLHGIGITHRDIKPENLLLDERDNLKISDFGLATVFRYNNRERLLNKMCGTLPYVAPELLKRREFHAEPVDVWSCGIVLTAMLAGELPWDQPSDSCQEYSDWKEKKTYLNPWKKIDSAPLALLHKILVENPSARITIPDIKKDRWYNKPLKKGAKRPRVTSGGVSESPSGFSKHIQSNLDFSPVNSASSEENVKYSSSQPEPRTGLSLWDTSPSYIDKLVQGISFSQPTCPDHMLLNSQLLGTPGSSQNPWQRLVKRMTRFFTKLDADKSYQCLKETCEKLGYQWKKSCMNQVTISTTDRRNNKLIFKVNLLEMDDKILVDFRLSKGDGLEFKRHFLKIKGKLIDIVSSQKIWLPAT

[8] = target: Serine/threonine-protein kinase MARK2 (Homo sapiens) (UniProt Q7KZI7); experiment: Selectivity interaction (Upstate Kinase Profiler service (Millipore)) EUB0000056c MARK2; conditions: at 1 µM
[9] = target: T4, Testis-specific serine/threonine-protein kinase 1 (Homo sapiens) (UniProt Q9BXA7); experiment: Selectivity interaction (KinomeScan (DiscoverX)) EUB0000607a TSSK1A; conditions: at 10 µM
T4 sequence (whole entry): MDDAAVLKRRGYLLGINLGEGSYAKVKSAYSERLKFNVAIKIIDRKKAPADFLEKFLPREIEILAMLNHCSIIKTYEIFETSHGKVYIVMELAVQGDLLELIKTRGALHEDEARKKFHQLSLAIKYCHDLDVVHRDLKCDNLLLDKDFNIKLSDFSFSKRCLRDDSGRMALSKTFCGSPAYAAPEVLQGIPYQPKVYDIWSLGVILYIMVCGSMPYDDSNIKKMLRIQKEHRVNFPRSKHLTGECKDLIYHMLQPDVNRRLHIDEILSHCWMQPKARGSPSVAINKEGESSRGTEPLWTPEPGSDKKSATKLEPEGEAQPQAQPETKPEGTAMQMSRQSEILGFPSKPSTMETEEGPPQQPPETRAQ

[10] = target: T5, Serine/threonine-protein kinase RIO1 (Homo sapiens) (UniProt Q9BRS2); experiment: Selectivity interaction (KinomeScan (DiscoverX)) EUB0000607a RIOK1; conditions: at 10 µM
T5 sequence (whole entry): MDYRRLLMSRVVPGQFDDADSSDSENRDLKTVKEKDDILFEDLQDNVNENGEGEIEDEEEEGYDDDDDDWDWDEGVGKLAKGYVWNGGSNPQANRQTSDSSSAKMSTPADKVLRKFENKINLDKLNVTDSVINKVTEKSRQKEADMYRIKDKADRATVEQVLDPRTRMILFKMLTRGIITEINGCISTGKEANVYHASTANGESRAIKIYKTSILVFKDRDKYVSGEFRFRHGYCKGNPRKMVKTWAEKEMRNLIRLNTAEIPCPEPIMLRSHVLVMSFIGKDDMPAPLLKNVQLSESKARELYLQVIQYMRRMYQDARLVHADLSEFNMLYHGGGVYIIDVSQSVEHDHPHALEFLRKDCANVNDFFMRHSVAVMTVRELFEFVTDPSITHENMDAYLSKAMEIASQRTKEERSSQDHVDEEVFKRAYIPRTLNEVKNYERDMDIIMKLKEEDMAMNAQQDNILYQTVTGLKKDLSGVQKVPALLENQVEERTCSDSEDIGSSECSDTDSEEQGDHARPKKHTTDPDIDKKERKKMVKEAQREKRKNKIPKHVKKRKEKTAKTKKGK

Chain of Serine/threonine-protein kinase MARK2 (Homo sapiens) (Q7KZI7 whole entry): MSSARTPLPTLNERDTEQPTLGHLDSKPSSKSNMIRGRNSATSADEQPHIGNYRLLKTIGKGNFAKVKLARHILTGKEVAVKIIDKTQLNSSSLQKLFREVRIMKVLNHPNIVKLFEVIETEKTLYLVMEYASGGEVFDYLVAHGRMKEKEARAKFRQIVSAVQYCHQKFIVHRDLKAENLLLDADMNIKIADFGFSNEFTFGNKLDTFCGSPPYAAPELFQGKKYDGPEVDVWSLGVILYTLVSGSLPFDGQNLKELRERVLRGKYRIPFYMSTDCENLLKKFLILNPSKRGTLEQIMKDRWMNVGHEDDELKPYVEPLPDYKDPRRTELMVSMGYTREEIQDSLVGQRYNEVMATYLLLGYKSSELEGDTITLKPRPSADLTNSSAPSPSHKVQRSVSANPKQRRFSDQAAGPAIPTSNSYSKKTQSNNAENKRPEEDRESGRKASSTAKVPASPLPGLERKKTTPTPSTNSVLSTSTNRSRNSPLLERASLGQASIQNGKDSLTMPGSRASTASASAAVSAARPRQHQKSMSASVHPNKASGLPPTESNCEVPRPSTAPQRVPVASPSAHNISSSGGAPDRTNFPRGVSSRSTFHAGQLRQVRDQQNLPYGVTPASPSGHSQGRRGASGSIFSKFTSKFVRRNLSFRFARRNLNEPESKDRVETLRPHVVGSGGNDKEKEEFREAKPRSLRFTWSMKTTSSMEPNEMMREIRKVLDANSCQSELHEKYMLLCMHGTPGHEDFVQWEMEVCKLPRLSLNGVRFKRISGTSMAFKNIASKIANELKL
Chain of Cyclin-dependent kinase 16 (Homo sapiens) (Q00536 whole entry): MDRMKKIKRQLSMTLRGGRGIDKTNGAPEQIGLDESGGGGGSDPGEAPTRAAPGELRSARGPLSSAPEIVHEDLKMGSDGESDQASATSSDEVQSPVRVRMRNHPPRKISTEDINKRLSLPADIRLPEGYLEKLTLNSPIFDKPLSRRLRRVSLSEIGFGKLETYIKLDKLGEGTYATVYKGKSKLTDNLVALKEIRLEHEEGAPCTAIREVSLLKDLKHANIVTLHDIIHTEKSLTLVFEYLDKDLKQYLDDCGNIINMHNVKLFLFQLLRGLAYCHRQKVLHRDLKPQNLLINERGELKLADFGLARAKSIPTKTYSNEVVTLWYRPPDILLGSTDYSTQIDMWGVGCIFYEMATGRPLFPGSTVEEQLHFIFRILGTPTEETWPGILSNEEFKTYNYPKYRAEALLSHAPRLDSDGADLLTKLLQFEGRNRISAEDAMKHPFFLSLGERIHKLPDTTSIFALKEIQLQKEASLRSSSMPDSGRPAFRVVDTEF
Chain of Wee1-like protein kinase 2 (Homo sapiens) (P0C1S8 whole entry, looked up): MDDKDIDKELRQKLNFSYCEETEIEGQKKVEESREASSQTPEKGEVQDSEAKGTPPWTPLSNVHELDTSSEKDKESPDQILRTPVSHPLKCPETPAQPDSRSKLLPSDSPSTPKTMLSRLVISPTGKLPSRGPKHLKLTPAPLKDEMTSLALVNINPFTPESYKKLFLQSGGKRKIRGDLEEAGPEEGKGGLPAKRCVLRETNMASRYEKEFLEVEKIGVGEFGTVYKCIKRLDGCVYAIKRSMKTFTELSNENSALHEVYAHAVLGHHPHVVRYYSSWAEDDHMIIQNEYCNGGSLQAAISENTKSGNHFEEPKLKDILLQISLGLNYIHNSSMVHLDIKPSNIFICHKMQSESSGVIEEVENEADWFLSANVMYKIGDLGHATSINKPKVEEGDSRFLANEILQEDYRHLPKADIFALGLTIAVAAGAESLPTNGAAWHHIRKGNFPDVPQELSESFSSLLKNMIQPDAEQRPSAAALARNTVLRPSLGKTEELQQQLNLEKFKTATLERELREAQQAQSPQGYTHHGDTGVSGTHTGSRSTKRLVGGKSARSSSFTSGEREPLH
Chain of STE20-like serine/threonine-protein kinase (Q9H2G2 whole entry, looked up): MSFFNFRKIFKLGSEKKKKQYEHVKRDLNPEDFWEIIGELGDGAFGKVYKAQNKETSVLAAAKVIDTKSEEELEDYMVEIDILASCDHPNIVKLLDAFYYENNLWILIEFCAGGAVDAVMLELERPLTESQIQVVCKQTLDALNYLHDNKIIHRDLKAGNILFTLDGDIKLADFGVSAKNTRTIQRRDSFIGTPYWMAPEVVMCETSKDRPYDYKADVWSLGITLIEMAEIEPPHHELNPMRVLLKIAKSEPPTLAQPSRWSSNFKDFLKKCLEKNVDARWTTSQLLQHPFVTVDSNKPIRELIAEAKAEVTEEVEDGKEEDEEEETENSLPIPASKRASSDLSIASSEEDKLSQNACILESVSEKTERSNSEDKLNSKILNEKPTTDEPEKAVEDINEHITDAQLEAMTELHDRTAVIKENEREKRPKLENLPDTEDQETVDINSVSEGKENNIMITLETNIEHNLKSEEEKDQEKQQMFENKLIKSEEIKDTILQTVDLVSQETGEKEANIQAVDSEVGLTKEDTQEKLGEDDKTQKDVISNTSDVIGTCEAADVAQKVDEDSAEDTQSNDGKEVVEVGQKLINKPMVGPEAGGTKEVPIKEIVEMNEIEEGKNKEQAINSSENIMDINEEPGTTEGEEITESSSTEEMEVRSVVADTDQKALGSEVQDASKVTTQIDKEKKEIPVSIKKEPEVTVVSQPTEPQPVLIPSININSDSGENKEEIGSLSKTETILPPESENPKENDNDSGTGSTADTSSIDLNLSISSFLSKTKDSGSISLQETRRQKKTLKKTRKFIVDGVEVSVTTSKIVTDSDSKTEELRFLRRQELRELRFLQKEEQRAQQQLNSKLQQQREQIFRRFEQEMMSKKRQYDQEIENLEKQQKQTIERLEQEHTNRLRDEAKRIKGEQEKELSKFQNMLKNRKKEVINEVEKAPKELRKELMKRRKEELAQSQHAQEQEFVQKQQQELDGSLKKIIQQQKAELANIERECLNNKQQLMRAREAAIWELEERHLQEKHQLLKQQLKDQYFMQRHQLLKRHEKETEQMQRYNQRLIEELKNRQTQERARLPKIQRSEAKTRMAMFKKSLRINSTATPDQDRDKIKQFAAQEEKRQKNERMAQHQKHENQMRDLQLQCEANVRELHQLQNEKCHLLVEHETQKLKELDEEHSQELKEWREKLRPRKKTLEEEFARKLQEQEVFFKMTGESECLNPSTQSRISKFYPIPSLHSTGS
Chain of Serine/threonine-protein kinase PRP4 homolog (Homo sapiens) (Q13523 whole entry): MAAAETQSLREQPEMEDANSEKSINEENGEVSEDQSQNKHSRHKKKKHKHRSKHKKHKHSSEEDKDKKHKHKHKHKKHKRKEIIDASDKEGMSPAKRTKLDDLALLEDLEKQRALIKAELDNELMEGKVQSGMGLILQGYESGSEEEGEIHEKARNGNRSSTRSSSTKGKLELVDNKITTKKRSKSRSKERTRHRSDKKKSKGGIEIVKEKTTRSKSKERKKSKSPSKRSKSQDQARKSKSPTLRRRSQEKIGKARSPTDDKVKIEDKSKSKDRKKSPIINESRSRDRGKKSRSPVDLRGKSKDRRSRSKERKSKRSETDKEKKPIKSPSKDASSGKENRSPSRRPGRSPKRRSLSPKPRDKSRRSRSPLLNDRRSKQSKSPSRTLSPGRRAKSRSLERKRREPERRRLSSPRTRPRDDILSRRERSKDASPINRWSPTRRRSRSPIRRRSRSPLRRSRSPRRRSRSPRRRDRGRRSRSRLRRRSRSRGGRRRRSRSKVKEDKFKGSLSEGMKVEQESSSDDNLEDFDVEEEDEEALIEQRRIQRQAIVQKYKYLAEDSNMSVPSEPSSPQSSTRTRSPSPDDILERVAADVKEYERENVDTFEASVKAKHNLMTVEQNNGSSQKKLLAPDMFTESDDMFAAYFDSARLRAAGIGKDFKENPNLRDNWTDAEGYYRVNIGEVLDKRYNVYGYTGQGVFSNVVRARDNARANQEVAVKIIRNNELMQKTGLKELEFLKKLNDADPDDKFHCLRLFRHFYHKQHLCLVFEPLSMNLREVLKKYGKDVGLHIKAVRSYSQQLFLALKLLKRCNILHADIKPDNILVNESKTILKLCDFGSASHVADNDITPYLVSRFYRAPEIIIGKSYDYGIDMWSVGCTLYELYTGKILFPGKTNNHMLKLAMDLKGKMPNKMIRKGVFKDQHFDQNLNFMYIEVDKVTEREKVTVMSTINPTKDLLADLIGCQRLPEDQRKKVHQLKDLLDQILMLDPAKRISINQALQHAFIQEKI

## COc1cc(Nc2nc(C)cc(-c3cnn4nc(OC)ccc34)n2)cc(C(F)(F)F)c1
[1]
  % of control: 100%
[2]
  % of control: 74%

## Nc1cnc(N2CCc3cc(S(=O)(=O)Nc4c(F)cc(Cl)cc4F)cc(N4CCCC4=O)c32)nc1 [TP-020n]
[3]
  % of control: 100%

## CC(C)(O)[C@H](F)CN1Cc2cc(NC(=O)c3cnn4cccnc34)c(N3CCOCC3)cc2C1=O
[4]
  dTM: 1.7 K

## CCN(CC)CCCCNc1ncc2cc(-c3cc(OC)cc(OC)c3)c(NC(=O)NC(C)(C)C)nc2n1
[5]
  % of control: 100%

## O[C@H]1CC[C@H](Nc2ncc3nc(Nc4c(F)cc(F)cc4F)n([C@H]4CCOC4)c3n2)CC1
[6]
  % of control: 100%

## N#Cc1cccc(-c2c[nH]c3ncnc(N4CCOCC4)c23)c1
[7]
  % of control: 94%

## Cc1ccc(-c2ccc3c(ccc4sc5c(c43)NC[C@@H](C)NC5=O)n2)cn1
[8]
  % of inhibition: 6%

## CNC(=O)Nc1ccc(-c2nc(N3CC4CCC(C3)O4)c3cnn(C4CCC5(CC4)OCCO5)c3n2)cc1
[9]
  % of control: 100%
[10]
  % of control: 91%
